Results reported in PubChem BioAssay AID330 (DTP/NCI, 2004).
Where “and” joins values, the source holds several entries; their conditions need not be identical. Equal values may be shown once. Inconclusive results and toxic doses are left out. Peptide text beside a SMILES is read from it. * marks the point of attachment. Cbz = O=C(OCc1ccccc1)*

Test system: P388 leukemia ip, CD2F1 mice, survival T/C
Assay: NCI In Vivo Anticancer Drug Screen. Data for tumor model P388 Leukemia (intraperitoneal) in CD2F1 (CDF1) mice
Settings: endpoint: median survival time, higher = longer survival
Outline: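 Mice carrying the transplanted tumor received test compound or vehicle. Survival was recorded in each group, and the value is the treated-group measurement divided by that of the vehicle-treated control group.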

[1] = dose: 100.0 mg/kg/injection, schedule: Q04DX003 (ip), vehicle: Klucel (hydroxypropylcellulose) (HPC)
[2] = dose: 200.0 mg/kg/injection, schedule: Q04DX003 (ip), vehicle: Klucel (hydroxypropylcellulose) (HPC)
[3] = dose: 400.0 mg/kg/injection, schedule: Q04DX003 (ip), vehicle: Klucel (hydroxypropylcellulose) (HPC)
[4] = dose: 60.0 mg/kg/injection, schedule: Q01DX005 (ip), vehicle: Klucel (hydroxypropylcellulose) (HPC)
[5] = dose: 120.0 mg/kg/injection, schedule: Q01DX005 (ip), vehicle: Klucel (hydroxypropylcellulose) (HPC)
[6] = dose: 240.0 mg/kg/injection, schedule: Q01DX005 (ip), vehicle: Klucel (hydroxypropylcellulose) (HPC)
[7] = dose: 50.0 mg/kg/injection, schedule: Q01DX009 (ip), vehicle: saline
[8] = dose: 100.0 mg/kg/injection, schedule: Q01DX009 (ip), vehicle: saline
[9] = dose: 200.0 mg/kg/injection, schedule: Q01DX009 (ip), vehicle: saline
[10] = dose: 60.0 mg/kg/injection, schedule: Q01DX005 (ip), vehicle: saline with Tween-80
[11] = dose: 120.0 mg/kg/injection, schedule: Q01DX005 (ip), vehicle: saline with Tween-80
[12] = dose: 240.0 mg/kg/injection, schedule: Q01DX005 (ip), vehicle: saline with Tween-80
[13] = dose: 50.0 mg/kg/injection, schedule: Q01DX009 (ip), vehicle: saline with Tween-80
[14] = dose: 100.0 mg/kg/injection, schedule: Q01DX009 (ip), vehicle: saline with Tween-80
[15] = dose: 200.0 mg/kg/injection, schedule: Q01DX009 (ip), vehicle: saline with Tween-80
[16] = dose: 50.0 mg/kg/injection, schedule: Q01DX009 (ip), vehicle: Klucel (hydroxypropylcellulose) (HPC)
[17] = dose: 100.0 mg/kg/injection, schedule: Q01DX009 (ip), vehicle: Klucel (hydroxypropylcellulose) (HPC)
[18] = dose: 200.0 mg/kg/injection, schedule: Q01DX009 (ip), vehicle: Klucel (hydroxypropylcellulose) (HPC)
[19] = dose: 50.0 mg/kg/injection, schedule: Q01DX005 (ip), vehicle: Klucel (hydroxypropylcellulose) (HPC)
[20] = dose: 100.0 mg/kg/injection, schedule: Q01DX005 (ip), vehicle: Klucel (hydroxypropylcellulose) (HPC)
[21] = dose: 200.0 mg/kg/injection, schedule: Q01DX005 (ip), vehicle: Klucel (hydroxypropylcellulose) (HPC)
[22] = dose: 12.5 mg/kg/injection, schedule: Q04DX002 (ip), vehicle: saline with Tween-80
[23] = dose: 25.0 mg/kg/injection, schedule: Q04DX002 (ip), vehicle: saline with Tween-80
[24] = dose: 50.0 mg/kg/injection, schedule: Q04DX002 (ip), vehicle: saline with Tween-80
[25] = dose: 12.5 mg/kg/injection, schedule: Q01DX009 (ip), vehicle: Klucel (hydroxypropylcellulose) (HPC)
[26] = dose: 25.0 mg/kg/injection, schedule: Q01DX009 (ip), vehicle: Klucel (hydroxypropylcellulose) (HPC)
[27] = dose: 400.0 mg/kg/injection, schedule: Q01DX009 (ip), vehicle: saline with Tween-80

## CC(C)(C)c1cc(C(=O)O)c2c(c1)C(=O)OCS2
[1]
  T/C: 99 % of control
[2]
  T/C: 91 % of control
[3]
  T/C: 97 % of control

## N#Cc1ccc(NC(=O)Nc2ccc(Cc3ccc(NC(=O)Nc4ccc(C#N)cc4)cc3)cc2)cc1
dose: 15.0 mg/kg/injection, schedule: Q01DX005 (ip), vehicle: Klucel (hydroxypropylcellulose) (HPC)
  T/C: 97 % of control
dose: 30.0 mg/kg/injection, schedule: Q01DX005 (ip), vehicle: Klucel (hydroxypropylcellulose) (HPC)
  T/C: 90 % of control
[4]
  T/C: 87 % of control
[5]
  T/C: 94 % of control

## O=C1C2=C(Nc3cc([N+](=O)[O-])ccc3N2)OC1c1ccccc1 (centres undefined)
[4]
  T/C: 91 % of control
[5]
  T/C: 91 % of control
[6]
  T/C: 99 % of control

## OCC1CC(c2ccccc2)=NO1 (centres undefined)
[4]
  T/C: 101 % of control
[5]
  T/C: 100 % of control
[6]
  T/C: 101 % of control

## COC(=O)C1CSC2(CCCN(Cc3ccccc3)C2)N1 (centres undefined)
[7]
  T/C: 105 % of control
[8]
  T/C: 122 % of control
[9]
  T/C: 109 % of control

## COc1ccc(Br)cc1C(Nc1nncs1)Nc1nncs1
dose: 30.0 mg/kg/injection, schedule: Q01DX005 (ip), vehicle: saline with Tween-80
  T/C: 93 % of control
[10]
  T/C: 87 % of control and 89 % of control
[11]
  T/C: 92 % of control
[12]
  T/C: 90 % of control

## CCOC1=C(N2CC2)C(=O)C(OCC)=C(N2CC2)C1=O
dose: 1.25 mg/kg/injection, schedule: Q01DX009 (ip), vehicle: saline
  T/C: 171 % of control
dose: 2.5 mg/kg/injection, schedule: Q01DX009 (ip), vehicle: saline
  T/C: 242 % of control

## Cc1ncn2c(C)nnc2c1C
[13]
  T/C: 102 % of control
[14]
  T/C: 100 % of control
[15]
  T/C: 102 % of control

## CC12CC3(C)C(Br)C3CC1O2 (centres undefined)
dose: 44.5 mg/kg/injection, schedule: Q01DX005 (ip), vehicle: saline with Tween-80
  T/C: 97 % of control
dose: 89.0 mg/kg/injection, schedule: Q01DX005 (ip), vehicle: saline with Tween-80
  T/C: 99 % of control
dose: 178.0 mg/kg/injection, schedule: Q01DX005 (ip), vehicle: saline with Tween-80
  T/C: 99 % of control

## CC1CCCCN1c1cc2nc[nH]c(=O)c2cc1[N+](=O)[O-] (centres undefined)
[1]
  T/C: 108 % of control
[2]
  T/C: 99 % of control
[3]
  T/C: 100 % of control

## CCOC(=O)/C(Cl)=N/Nc1ccccc1
dose: 50.0 mg/kg/injection, schedule: Q01DX005 (ip), vehicle: saline with Tween-80
  T/C: 97 % of control
dose: 100.0 mg/kg/injection, schedule: Q01DX005 (ip), vehicle: saline with Tween-80
  T/C: 111 % of control

## O=Cc1ccc2nc(C(Cl)(Cl)Cl)ccc2c1
[13]
  T/C: 100 % of control
[14]
  T/C: 105 % of control
[15]
  T/C: 100 % of control

## CSc1cccc(NC(=S)NN/C(=N/S(=O)(=O)c2ccccc2)N2CCCC2)c1
[16]
  T/C: 102 % of control
[17]
  T/C: 101 % of control
[18]
  T/C: 99 % of control

## CC(C)CC(NC(=O)C(Cc1cnc[nH]1)NC(=O)OCc1ccccc1)C(=O)O (stereo not drawn) (Cbz-His-Leu-OH; configuration not given here)
[19]
  T/C: 102 % of control
[20]
  T/C: 104 % of control
[21]
  T/C: 104 % of control

## CC1=C2C3OC(=O)C(C)C3CCC2(C)CCC1=O (centres undefined)
[22]
  T/C: 107 % of control
[23]
  T/C: 91 % of control
[24]
  T/C: 91 % of control

## Fc1cccc(Cl)c1CSC(=S)N1CCSCC1
[10]
  T/C: 110 % of control
[11]
  T/C: 105 % of control
[12]
  T/C: 96 % of control

## O=C(/C=N/O)Nc1ccccc1I
[19]
  T/C: 100 % of control
[20]
  T/C: 98 % of control
[21]
  T/C: 115 % of control

## C=CCC1(CCC#N)C(=O)CC(C)(C)CC1=O
dose: 100.0 mg/kg/injection, schedule: Q04DX003 (ip), vehicle: saline
  T/C: 104 % of control
dose: 200.0 mg/kg/injection, schedule: Q04DX003 (ip), vehicle: saline
  T/C: 99 % of control
dose: 400.0 mg/kg/injection, schedule: Q04DX003 (ip), vehicle: saline
  T/C: 98 % of control

## C=C[Se](=C(C(=O)c1ccccc1)C(=O)c1ccccc1)c1ccccc1 (centres undefined)
dose: 6.25 mg/kg/injection, schedule: Q01DX009 (ip), vehicle: saline
  T/C: 96 % of control
dose: 12.5 mg/kg/injection, schedule: Q01DX009 (ip), vehicle: saline
  T/C: 103 % of control
dose: 25.0 mg/kg/injection, schedule: Q01DX009 (ip), vehicle: saline
  T/C: 99 % of control
[7]
  T/C: 107 % of control
[8]
  T/C: 113 % of control
[9]
  T/C: 113 % of control

## Cc1ccc(C(=O)N/N=C/C(=O)O)cc1
[25]
  T/C: 94 % of control
[26]
  T/C: 95 % of control
[16]
  T/C: 94 % of control
[17]
  T/C: 88 % of control
[18]
  T/C: 88 % of control

## O=C(C[n+]1ccn(CC(OCc2ccc(Cl)cc2Cl)c2ccc(Cl)cc2Cl)c1)c1ccc(F)cc1 (centres undefined)
dose: 3.12 mg/kg/injection, schedule: Q01DX005 (ip), vehicle: saline with Tween-80
  T/C: 101 % of control
dose: 6.25 mg/kg/injection, schedule: Q01DX005 (ip), vehicle: saline with Tween-80
  T/C: 95 % of control
dose: 12.5 mg/kg/injection, schedule: Q01DX005 (ip), vehicle: saline with Tween-80
  T/C: 95 % of control

## CCCOC1NC(=O)Oc2ccccc21 (centres undefined)
[10]
  T/C: 101 % of control and 104 % of control and 106 % of control
[11]
  T/C: 104 % of control and 111 % of control and 117 % of control
[12]
  T/C: 114 % of control and 117 % of control

## O=C1CCC(=O)S1
[22]
  T/C: 100 % of control
[23]
  T/C: 91 % of control
[24]
  T/C: 91 % of control

## O=C(OCC(Cl)(Cl)Cl)N1CCCCC1
dose: 25.0 mg/kg/injection, schedule: Q01DX009 (ip), vehicle: saline with Tween-80
  T/C: 98 % of control
[13]
  T/C: 92 % of control
[14]
  T/C: 102 % of control

## O=[N+]([O-])c1ccc(/C=C\c2ccc(Cl)cc2S(=O)(=O)F)c(Cl)c1
[14]
  T/C: 95 % of control
[1]
  T/C: 117 % of control
[15]
  T/C: 100 % of control
[2]
  T/C: 103 % of control
[27]
  T/C: 104 % of control
[3]
  T/C: 112 % of control

## CC([OH2+])CNCCN.CC([OH2+])CNCCN.O=[N+]([O-])[O-].[Cu+2] (centres undefined)
[7]
  T/C: 113 % of control

## CN(C)c1ccc(CN2CCCN(Cc3ccc(N(C)C)cc3)C2c2ccncc2)cc1
[14]
  T/C: 100 % of control
[15]
  T/C: 100 % of control
[27]
  T/C: 100 % of control

## [C-]#[O+].[C-]#[O+].[C-]#[O+].[C-]#[O+].[Mo].c1cnc2c(c1)ccc1cccnc12
dose: 6.25 mg/kg/injection, schedule: Q01DX009 (ip), vehicle: Klucel (hydroxypropylcellulose) (HPC)
  T/C: 100 % of control
[25]
  T/C: 95 % of control
[26]
  T/C: 93 % of control
[16]
  T/C: 95 % of control

## Nc1nc(-c2ccccn2)cc(-c2cc(-c3ccccn3)nc(N)n2)n1
[4]
  T/C: 102 % of control
[5]
  T/C: 112 % of control

## COc1cccc2c1C(=O)c1c(O)c3c(c(O)c1C2=O)C[C@@](O)(/C(C)=N/NC(=O)c1ccc(Cl)c(Cl)c1)C[C@@H]3OC1CC(N)C(O)C(C)O1 (some centres undefined)
dose: 0.12 mg/kg/injection, schedule: Q01DX009 (ip), vehicle: water
  T/C: 117 % of control
dose: 0.5 mg/kg/injection, schedule: Q01DX009 (ip), vehicle: water
  T/C: 157 % of control
dose: 1.0 mg/kg/injection, schedule: Q01DX009 (ip), vehicle: water
  T/C: 166 % of control
dose: 2.0 mg/kg/injection, schedule: Q01DX009 (ip), vehicle: water
  T/C: 155 % of control and 175 % of control
dose: 4.0 mg/kg/injection, schedule: Q01DX009 (ip), vehicle: water
  T/C: 163 % of control
dose: 5.0 mg/kg/injection, schedule: Q01DX001 (ip), vehicle: water
  T/C: 159 % of control
dose: 10.0 mg/kg/injection, schedule: Q01DX001 (ip), vehicle: water
  T/C: 168 % of control
dose: 20.0 mg/kg/injection, schedule: Q01DX001 (ip), vehicle: water
  T/C: 123 % of control

## CCCCCCCCCCCCCCN1CCS(=O)(=O)CC1
[16]
  T/C: 89 % of control
[17]
  T/C: 91 % of control
[18]
  T/C: 90 % of control
